One compound from ChEMBL document CHEMBL6096669, “Design and synthesis of novel derivatives of bisepoxylignans as potent anti-inflammatory agents involves the modulation of the M1/M2 microglia phenotype via TLR4/NF-κB signaling pathway” (Eur J Med Chem, 2025) can be followed below.

Activity calls are given as the source filed them. The rule behind the calls is not given here.

The nature of data set [1]: Inhibition of LPS-induced NO production in mouse BV-2 cells at 10 uM measured after 24 hrs followed by induced with LPS for another 24 hrs by ELISA relative to control. It counts as functional.
Data set [2] relates to BV-2. The experiment in a line: Anti-inflammatory activity against LPS-induced mouse BV-2 cells assessed as decrease in LPS-induced iNOS mRNA expression at 5 uM incubated for 4 hrs followed by LPS induced for 12 hrs by RT-PCR analysis relative to control. The following applies: time 16.0 hrs. It counts as functional, cell-based.
Data set [3] concerns BV-2. The experiment in a line: Anti-inflammatory activity against LPS-induced mouse BV-2 cells assessed as decrease in LPS-induced IL-1beta mRNA expression at 10 to 20 uM incubated for 4 hrs followed by LPS induced for 12 hrs by RT-PCR analysis relative to control. The settings on record: dose 10-20 µM, time 16.0 hrs. It is filed as functional, cell-based.
Data set [4] is described as follows: Acute toxicity in C57BL/6 mouse assessed as morphological changes in liver by measuring signs of inflammation at 500 mg/kg, po single dose measured on day 8 by H and E staining based assay. It is filed as organism-based. The settings on record: in vivo, 192 h, time 8 day.
Data set [5] can be described thus: Biodistribution in C57BL/6 mouse liver at 20 mg/kg, IG measured after 15 mins. It is filed as ADME, organism-based. The following applies: in vivo, po, 0.25 h.
Data set [6] can be described thus: Biodistribution in C57BL/6 mouse kidney at 20 mg/kg, IG measured after 15 mins. It counts as ADME, organism-based. The settings on record: in vivo, po, 0.25 h.
Data set [7] is described as follows: Biodistribution in C57BL/6 mouse spleen at 20 mg/kg, IG measured after 15 mins. It is filed as ADME, organism-based. The settings on record: in vivo, po, 0.25 h.
Data set [8] can be described thus: AUCall in rat at 20 mg/kg, po single dose. It counts as ADME, organism-based. The settings on record: in vivo.
A short description of data set [9]: MRT in rat at 20 mg/kg, po single dose. It is filed as ADME, organism-based. The settings on record: in vivo.
Data set [10] relates to Mus musculus. The experiment in a line: Anti-neuroinflammatory activity against LPS-induced male C57BL/6 mouse assessed as suppression of LPS-induced TNF-alphamRNA level at 20 mg/kg, po administered for 3 days followed by induced with LPS by tail vein injection by RT-PCR analysis. It counts as functional, organism-based. The following applies: time 3.0 day.
Data set [11] concerns Mus musculus. The experiment in a line: Anti-neuroinflammatory activity against LPS-induced male C57BL/6 mouse assessed as suppression of LPS-induced pathological changes in heart at 20 mg/kg, po administered for 3 days followed by induced with LPS by tail vein injection by hematoxylin-eosin staining based assay. It is filed as functional, organism-based. The following applies: time 3.0 day.

Data set [12] deals with Mus musculus. The experiment in a line: Anti-neuroinflammatory activity against LPS-induced male C57BL/6 mouse assessed as suppression of LPS-induced pathological changes in lung at 20 mg/kg, po administered for 3 days followed by induced with LPS by tail vein injection by hematoxylin-eosin staining based assay. It is filed as functional, organism-based. The following applies: time 3.0 day.

Data set [13] has as its system Mus musculus. The experiment in a line: Anti-neuroinflammatory activity against LPS-induced male C57BL/6 mouse assessed as suppression of LPS-induced pathological changes in liver at 20 mg/kg, po administered for 3 days followed by induced with LPS by tail vein injection by hematoxylin-eosin staining based assay. It counts as functional, organism-based. The settings on record: time 3.0 day.

In data set [14] the test system is Mus musculus. The experiment in a line: Anti-neuroinflammatory activity against LPS-induced male C57BL/6 mouse assessed as suppression of LPS-induced neuronal damage by measuring increase in Nissl bodies at 20 mg/kg, po administered for 3 days followed by induced with LPS by tail vein injection. It counts as functional, organism-based. The settings on record: time 3.0 day.

The subject of data set [15] is Mus musculus. The experiment in a line: Anti-neuroinflammatory activity against LPS-induced male C57BL/6 mouse assessed as suppression of LPS-induced microglial activation by measuring decrease in IBA1 fluorescence intensity at 20 mg/kg, po administered for 3 days followed by induced with LPS by tail vein injection by immunofluorescence staining based assay. It is filed as functional, organism-based. The settings on record: time 3.0 day.

In data set [16] the test system is Mus musculus. The experiment in a line: Anti-neuroinflammatory activity against LPS-induced male C57BL/6 mouse assessed as suppression of LPS-induced p-NF-kappaB protein level at 10 mg/kg, po administered for 3 days followed by induced with LPS by tail vein injection by Western blot analysis. It counts as functional, organism-based. The following applies: time 3.0 day. (In western blotting, separated proteins are transferred to a membrane and probed.)

The subject of data set [17] is Mus musculus. The experiment in a line: Anti-neuroinflammatory activity against LPS-induced male C57BL/6 mouse assessed as suppression of LPS-induced p-I-kappaB-alpha protein level at 10 mg/kg, po administered for 3 days followed by induced with LPS by tail vein injection by Western blot analysis. It is filed as functional, organism-based. The settings on record: time 3.0 day.

What is called inhibition is the change of the read-out against control, counted positive when it falls. Higher therefore signals strong suppression. A word on the AUC: it is concentration integrated over time. The MRT is a mean duration of stay, worked out from the concentration-time curve. `O=c1[nH]c2ccc(Nc3ncnc4c3ccn4Cc3ccc(F)cc3)cc2[nH]1`: the inhibition at 10 µM in data set [1] was determined as 95%. The Activity result in the data set on BV-2 [2] is “Not active; No Significant Effect Observed Vs Lps”; in data set [4], “Non-toxic”; in the data set on Mus musculus [11] it was “Active; Decreased Lps-Induced Visceral Injury (Cell Morphology, Hemorrhage, And Neutrophil Infiltration) And Maintaining Normal Cell Shape And Arrangement And Enhancing Infiltration Of Inflammatory Cells”; in the data set on Mus musculus [12], “Active; Decreased Lps-Induced Visceral Injury (Cell Morphology, Hemorrhage, And Neutrophil Infiltration) And Maintaining Normal Cell Shape And Arrangement And Enhancing Infiltration Of Inflammatory Cells”; in the data set on Mus musculus [13], “Active; Decreased Lps-Induced Visceral Injury (Cell Morphology, Hemorrhage, And Neutrophil Infiltration) And Maintaining Normal Cell Shape And Arrangement And Enhancing Infiltration Of Inflammatory Cells”; in the data set on Mus musculus [16], “Not active; No Significant Effect Observed Vs Lps”. For the same compound, the Activity entry in the data set on Mus musculus [17] was “Not active; No Significant Effect Observed Vs Lps”. Moreover, the result with BV-2 [3], with Mus musculus [10], in the data set on Mus musculus [14] and in the data set with Mus musculus [15] was Active. In addition, the Drug uptake entry in [5], in data set [6] and in data set [7] was “Active” each time. The AUC in data set [8] stood at 43600 ng·h/mL. In data set [9], the MRT worked out at 6.2 h.
